For 23 compounds, T/C results are on record in PubChem BioAssay AID330 (DTP/NCI, 2004).

The assay concerns P388 leukemia ip, CD2F1 mice, survival T/C. The experiment in a line: NCI In Vivo Anticancer Drug Screen. Data for tumor model P388 Leukemia (intraperitoneal) in CD2F1 (CDF1) mice. Particulars: endpoint: median survival time, higher = longer survival. The procedure, abridged:
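Mice carrying the transplanted tumor received test compound or vehicle. Survival was recorded in each group, and the value is the treated-group measurement divided by that of the vehicle-treated control group.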

[1] abbreviates: dose: 50.0 mg/kg/injection, schedule: Q01DX005 (ip), vehicle: saline with Tween-80.
[2] abbreviates: dose: 100.0 mg/kg/injection, schedule: Q01DX005 (ip), vehicle: saline with Tween-80.
Setting [3] is: dose: 200.0 mg/kg/injection, schedule: Q01DX005 (ip), vehicle: saline with Tween-80.
Where [4] appears, read: dose: 100.0 mg/kg/injection, schedule: Q01DX001 (ip), vehicle: Klucel (hydroxypropylcellulose) (HPC).
Where [5] appears, read: dose: 200.0 mg/kg/injection, schedule: Q01DX001 (ip), vehicle: Klucel (hydroxypropylcellulose) (HPC).
[6] abbreviates: dose: 25.0 mg/kg/injection, schedule: Q01DX009 (ip), vehicle: other.
The mark [7] stands for this setting: dose: 50.0 mg/kg/injection, schedule: Q01DX009 (ip), vehicle: other.
Setting [8] is: dose: 100.0 mg/kg/injection, schedule: Q01DX009 (ip), vehicle: other.
[9] abbreviates: dose: 12.5 mg/kg/injection, schedule: Q01DX009 (ip), vehicle: saline.
[10] abbreviates: dose: 25.0 mg/kg/injection, schedule: Q01DX009 (ip), vehicle: saline.
The mark [11] stands for this setting: dose: 50.0 mg/kg/injection, schedule: Q01DX009 (ip), vehicle: Klucel (hydroxypropylcellulose) (HPC).
[12] abbreviates: dose: 50.0 mg/kg/injection, schedule: Q01DX009 (ip), vehicle: saline.
Setting [13] is: dose: 50.0 mg/kg/injection, schedule: Q01DX009 (ip), vehicle: saline with Tween-80.
Where [14] appears, read: dose: 100.0 mg/kg/injection, schedule: Q01DX009 (ip), vehicle: saline with Tween-80.
[15] abbreviates: dose: 25.0 mg/kg/injection, schedule: Q01DX009 (ip), vehicle: saline with Tween-80.

“And” between values parts separate entries of the source, which are not always exact repeats. Identical values can stand only once. Toxic doses and inconclusive results are not listed. Peptide text beside a SMILES is read from it. * marks the point of attachment. Cbz = O=C(OCc1ccccc1)*

As to `O=C1Cn2c(c3ccccc3nc2=O)N1`, the T/C under setting [1] was 104 % of control, the T/C under setting [2] is 103 % of control and the T/C under setting [3] is 106 % of control.

As to `O=C(Nc1cc(Cl)cc(Cl)c1)N1CCOCC1`, the T/C was 92 % of control (dose: 60.0 mg/kg/injection, schedule: Q01DX005 (ip), vehicle: saline with Tween-80); 92 % of control (dose: 120.0 mg/kg/injection, schedule: Q01DX005 (ip), vehicle: saline with Tween-80); 92 % of control (dose: 240.0 mg/kg/injection, schedule: Q01DX005 (ip), vehicle: saline with Tween-80).

For `CCCC(Cc1ccccc1)C(=O)O` (stereo not given), the T/C was 123 % of control (dose: 100.0 mg/kg/injection, schedule: Q01DX001 (ip), vehicle: saline with Tween-80); 108 % of control (dose: 200.0 mg/kg/injection, schedule: Q01DX001 (ip), vehicle: saline with Tween-80); 124 % of control (dose: 400.0 mg/kg/injection, schedule: Q01DX001 (ip), vehicle: saline with Tween-80).

On to `O=C(NC(Cc1ccc(O)cc1)C(=O)NC(Cc1ccccc1)C(=O)O)OCc1ccccc1` (stereo not drawn) (Cbz-Tyr-Phe-OH; configuration not given here), for which the T/C is, setting by setting: under setting [1], 102 % of control; under setting [2], 106 % of control; under setting [3], 104 % of control.

As for `CCOC(=O)COC(=O)C1C(C(N)=O)N(CC(=O)OCC)CCN1CC(=O)OCC` (stereo not given), the T/C reads like this: under setting [1], 101 % of control; under setting [2], 99 % of control; under setting [3], 103 % of control.

On to `O=C(S)CC1(O)CCCCC12OC2c1ccccc1` (stereo not given), for which the T/C under setting [4] was 99 % of control; the T/C under setting [5] was 104 % of control; the T/C (dose: 400.0 mg/kg/injection, schedule: Q01DX001 (ip), vehicle: Klucel (hydroxypropylcellulose) (HPC)) was 103 % of control.

For the compound `CCOC(=O)/C=C(/Nc1cccc(OC)c1)c1ccccc1`, the T/C is 97 % of control under setting [6]; 103 % of control under setting [7]; 98 % of control under setting [8]; 91 % of control (dose: 200.0 mg/kg/injection, schedule: Q01DX009 (ip), vehicle: other); 105 % of control (dose: 400.0 mg/kg/injection, schedule: Q01DX009 (ip), vehicle: other).

Consider `ClC1CC[N-]CC1.ClC1CC[N-]CC1.[Cl][Pt+2]([Cl])([Cl])[Cl]`, for which the T/C was 100 % of control (dose: 1.56 mg/kg/injection, schedule: Q01DX009 (ip), vehicle: saline); 108 % of control (dose: 3.13 mg/kg/injection, schedule: Q01DX009 (ip), vehicle: saline); 166 % of control (dose: 6.25 mg/kg/injection, schedule: Q01DX009 (ip), vehicle: Klucel (hydroxypropylcellulose) (HPC)); 192 % of control (dose: 12.5 mg/kg/injection, schedule: Q01DX009 (ip), vehicle: Klucel (hydroxypropylcellulose) (HPC)); 153 % of control under setting [9]; 245 % of control (dose: 25.0 mg/kg/injection, schedule: Q01DX009 (ip), vehicle: Klucel (hydroxypropylcellulose) (HPC)). The T/C was 172 % of control under setting [10] and 113 % of control under setting [11].

Turning to `COc1ccc(C(C)N(C)C)cc1` (stereo not given), the T/C (dose: 50.0 mg/kg/injection, schedule: Q01DX001 (ip), vehicle: other) was 101 % of control; the T/C (dose: 100.0 mg/kg/injection, schedule: Q01DX001 (ip), vehicle: other) is 99 % of control and 103 % of control; the T/C (dose: 200.0 mg/kg/injection, schedule: Q01DX001 (ip), vehicle: other) is 98 % of control.

For `COc1cc2c(cc1C1COc3cc4occc4cc3C1=O)OCO2` (stereo not given), the T/C by setting is: (dose: 12.5 mg/kg/injection, schedule: Q01DX005 (ip), vehicle: Klucel (hydroxypropylcellulose) (HPC)) 97 % of control; (dose: 25.0 mg/kg/injection, schedule: Q01DX005 (ip), vehicle: Klucel (hydroxypropylcellulose) (HPC)) 95 % of control; (dose: 50.0 mg/kg/injection, schedule: Q01DX005 (ip), vehicle: Klucel (hydroxypropylcellulose) (HPC)) 92 % of control; (dose: 100.0 mg/kg/injection, schedule: Q01DX005 (ip), vehicle: Klucel (hydroxypropylcellulose) (HPC)) 95 % of control; (dose: 200.0 mg/kg/injection, schedule: Q01DX005 (ip), vehicle: Klucel (hydroxypropylcellulose) (HPC)) 95 % of control.

In the case of `O=C(NC(Cc1ccccc1F)C(=O)O)c1ccccc1` (stereo not given), the T/C by setting is: under setting [6], 98 % of control; under setting [7], 105 % of control; under setting [8], 98 % of control.

For the compound `CCNC(C)(C)C(SSSC(c1ccc(Cl)cc1)C(C)(C)NCC)c1ccc(Cl)cc1` (stereo not given), the T/C runs as follows: (dose: 6.25 mg/kg/injection, schedule: Q01DX009 (ip), vehicle: saline) 109 % of control; under setting [9], 115 % of control; under setting [10], 105 % of control; under setting [12], 101 % of control.

For the compound `CC(=O)N1OC2(C)c3ccccc3C1(C)c1ccccc12`, the T/C is 100 % of control under setting [13]; 94 % of control under setting [14]; 92 % of control (dose: 200.0 mg/kg/injection, schedule: Q01DX009 (ip), vehicle: saline with Tween-80).

As for `CCCCNC(=O)C(N)CON` (stereo not given), the T/C is, setting by setting: (dose: 50.0 mg/kg/injection, schedule: Q01DX005 (ip), vehicle: saline) 106 % of control; (dose: 100.0 mg/kg/injection, schedule: Q01DX005 (ip), vehicle: saline) 113 % of control; (dose: 200.0 mg/kg/injection, schedule: Q01DX005 (ip), vehicle: saline) 106 % of control.

`O=C(SCc1ccccc1)c1cccnc1`: the T/C is 105 % of control under setting [15], 110 % of control under setting [13] and 100 % of control under setting [14].

On to `O=c1c2ccccc2sc2c([N+](=O)[O-])ccc(NCCCC3CCCN4CCCCC34)c12` (stereo not given), for which the T/C was 100 % of control (dose: 31.9 mg/kg/injection, schedule: Q01DX005 (ip), vehicle: saline with Tween-80); 102 % of control (dose: 63.8 mg/kg/injection, schedule: Q01DX005 (ip), vehicle: saline with Tween-80); 110 % of control (dose: 127.5 mg/kg/injection, schedule: Q01DX005 (ip), vehicle: saline with Tween-80).

In the case of `CC(C)(C)C1=CC(=O)C(C#N)=C(C#N)C1=O`, the T/C was 95 % of control (dose: 6.25 mg/kg/injection, schedule: Q01DX009 (ip), vehicle: saline with Tween-80); 109 % of control (dose: 12.5 mg/kg/injection, schedule: Q01DX009 (ip), vehicle: saline with Tween-80); 100 % of control under setting [15].

Turning to `Clc1cccc(Cl)c1C1CSc2ccccc2N=C1c1ccccc1` (stereo not given), the T/C under setting [11] is 94 % of control; the T/C (dose: 100.0 mg/kg/injection, schedule: Q01DX009 (ip), vehicle: Klucel (hydroxypropylcellulose) (HPC)) was 100 % of control; the T/C (dose: 200.0 mg/kg/injection, schedule: Q01DX009 (ip), vehicle: Klucel (hydroxypropylcellulose) (HPC)) was 100 % of control.

On to `C[N+]1(CCC(/C=C/c2ccc([N+](=O)[O-])cc2)=N\O)CCOCC1`, for which the T/C (dose: 7.5 mg/kg/injection, schedule: Q01DX005 (ip), vehicle: saline with Tween-80) is 107 % of control; the T/C (dose: 15.0 mg/kg/injection, schedule: Q01DX005 (ip), vehicle: saline with Tween-80) was 93 % of control; the T/C (dose: 30.0 mg/kg/injection, schedule: Q01DX005 (ip), vehicle: saline with Tween-80) was 100 % of control.

Take `C=CC12COC(=O)C(=C)C1C(O)C1C(=C)C(=O)OC1C2` (stereo not given): the T/C runs as follows: (dose: 0.5 mg/kg/injection, schedule: Q01DX009 (ip), vehicle: saline) 97 % of control; (dose: 1.0 mg/kg/injection, schedule: Q01DX009 (ip), vehicle: saline) 97 % of control; (dose: 2.0 mg/kg/injection, schedule: Q01DX009 (ip), vehicle: saline) 106 % of control; (dose: 4.0 mg/kg/injection, schedule: Q01DX009 (ip), vehicle: saline) 110 % of control.

For the compound `O=C(Nc1ccccc1)N1CC2(CN1)CNN(C(=O)Nc1ccccc1)C2`, the T/C runs as follows: (dose: 50.0 mg/kg/injection, schedule: Q01DX001 (ip), vehicle: Klucel (hydroxypropylcellulose) (HPC)) 103 % of control; under setting [4], 100 % of control; under setting [5], 91 % of control.

In the case of `NCCCCC1(CCCCN)OCCO1`, the T/C under setting [9] is 95 % of control, the T/C under setting [10] was 95 % of control and the T/C under setting [12] was 100 % of control.

Take `NC(Cc1ccc(O)cc1)c1nn[nH]n1` (stereo not given): the T/C is 114 % of control under setting [15], 100 % of control under setting [13] and 99 % of control under setting [14].
